From patent US20250171437A1 (Agios Pharmaceuticals,Inc., priority 2022, published 2025) come the findings set out here.

For this experiment, the target named is T1, human PAH with the R408W mutation (A375 R408W cells) (Homo sapiens, UniProt P00439, R408W).
T1 construct: expressed in transfected cells
T1 sequence (P00439 1-452 R408W): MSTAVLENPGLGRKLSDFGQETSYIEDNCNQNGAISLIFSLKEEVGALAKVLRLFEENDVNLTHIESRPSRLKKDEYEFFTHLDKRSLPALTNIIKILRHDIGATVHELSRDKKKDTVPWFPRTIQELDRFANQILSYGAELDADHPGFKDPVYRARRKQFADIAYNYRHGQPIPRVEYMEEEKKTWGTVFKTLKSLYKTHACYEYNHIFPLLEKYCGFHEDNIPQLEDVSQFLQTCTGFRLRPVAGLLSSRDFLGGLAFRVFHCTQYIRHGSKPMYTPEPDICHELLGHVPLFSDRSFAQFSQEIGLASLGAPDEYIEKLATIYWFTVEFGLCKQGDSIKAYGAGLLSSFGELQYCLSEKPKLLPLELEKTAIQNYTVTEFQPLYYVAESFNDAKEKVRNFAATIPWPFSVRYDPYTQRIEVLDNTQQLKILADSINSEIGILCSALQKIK
Briefly: Cell Based Phenylalanine Flux Assay. The settings on record: A375 R408W cells; 24 hrs with compound, then 20 μM sepiapterin and 800 μM 13C9,15N-Phenylalanine for 4 hours; 13C-Tyrosine by LC-MS; average where tested multiple times. The gist of the method: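 Puromycin-selected A375 line, lentiviral hPAH R408W; cmpd 24 h, 37 °C, 5% CO2, 0.5% DMSO; then 20 μM sepiapterin + 800 μM 13C9,15N-Phe, 4 h; media extracted in 80% MeCN; 13C-Tyr by LC-MS; AC50 from 10-pt curves.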
Broadly, the AC50 is the midpoint of the concentration-response curve, whichever way the signal moves. Turning to `CCn1cnnc1C(=O)N1CCc2[nH]cnc2[C@@H]1c1nc2cc(F)ccc2o1` [Example 886, (R)-(4-ethyl-4H-1,2,4-triazol-3-yl)(4-(5-fluorobenzo[d]oxazol-2-yl)-6,7-dihydro-1H-imidazo[4,5-c]pyridin-5(4H)-yl)methanone], the AC50 lay in the range of 1 to 5 µM. For the compound `O=C(CCc1ncco1)N1CCc2[nH]cnc2[C@H]1c1nc2c(F)cccc2o1` [Example 887, (S)-1-(4-(4-fluorobenzo[d]oxazol-2-yl)-6,7-dihydro-1H-imidazo[4,5-c]pyridin-5(4H)-yl)-3-(oxazol-2-yl)propan-1-one], the half-maximal activity concentration (AC50) was in the range of 0.5 to 1 µM. In the case of `Cc1ccc(C)c2oc([C@@H]3c4nc[nH]c4CCN3C(=O)c3ocnc3C(F)F)nc12` [Example 890, (S)-(4-(difluoromethyl)oxazol-5-yl)(4-(4,7-dimethylbenzo[d]oxazol-2-yl)-6,7-dihydro-1H-imidazo[4,5-c]pyridin-5(4H)-yl)methanone] it was ≤ 0.5 µM. With `Cn1cnc(-c2nc(C(F)F)c(C(=O)N3CCc4[nH]cnc4[C@@H]3c3nc4cccc(F)c4o3)o2)c1` [Example 891, (R)-(4-(difluoromethyl)-2-(1-methyl-1H-imidazol-4-yl)oxazol-5-yl)(4-(7-fluorobenzo[d]oxazol-2-yl)-1,4,6,7-tetrahydro-5H-imidazo[4,5-c]pyridin-5-yl)methanone], the AC50 lay in the range of 1 to 5 µM. Consider `Cn1cnc(-c2nc(C(F)F)c(C(=O)N3CCc4[nH]cnc4[C@H]3c3nc4cccc(F)c4o3)o2)c1` [Example 892, (S)-(4-(difluoromethyl)-2-(1-methyl-1H-imidazol-4-yl)oxazol-5-yl)(4-(7-fluorobenzo[d]oxazol-2-yl)-1,4,6,7-tetrahydro-5H-imidazo[4,5-c]pyridin-5-yl)methanone], for which the AC50 is ≤ 0.5 µM. Regarding `CC(C)(O)c1ncc(C(=O)N2CCc3[nH]cnc3[C@H]2c2nc3c(F)cccc3o2)o1` [Example 893, (S)-(4-(4-fluorobenzo[d]oxazol-2-yl)-6,7-dihydro-1H-imidazo[4,5-c]pyridin-5(4H)-yl)(2-(2-hydroxypropan-2-yl)oxazol-5-yl)methanone], the half-maximal activity concentration (AC50) lay within 1 to 5 µM. Take `CC(C)(O)c1ncc(C(=O)N2CCc3[nH]cnc3[C@@H]2c2nc3c(F)cccc3o2)o1` [Example 894, (R)-(4-(4-fluorobenzo[d]oxazol-2-yl)-6,7-dihydro-1H-imidazo[4,5-c]pyridin-5(4H)-yl)(2-(2-hydroxypropan-2-yl)oxazol-5-yl)methanone]: the AC50 is 1 to 5 µM. As to `O=C(c1cnn2cc(N3CCC(O)CC3)ccc12)N1CCc2[nH]cnc2[C@H]1c1nc2c(F)ccc(F)c2o1` [Example 895, (S)-(4-(4,7-difluorobenzo[d]oxazol-2-yl)-6,7-dihydro-1H-imidazo[4,5-c]pyridin-5(4H)-yl)(6-(4-hydroxypiperidin-1-yl)pyrazolo[1,5-a]pyridin-3-yl)methanone], the AC50 was 1 to 5 µM. Turning to `O=C(c1cnn2cc(N3CCC(O)CC3)ccc12)N1CCc2[nH]cnc2[C@@H]1c1nc2c(F)ccc(F)c2o1` [Example 896, (R)-(4-(4,7-difluorobenzo[d]oxazol-2-yl)-6,7-dihydro-1H-imidazo[4,5-c]pyridin-5(4H)-yl)(6-(4-hydroxypiperidin-1-yl)pyrazolo[1,5-a]pyridin-3-yl)methanone], the AC50 was ≥ 5 µM.

`Cc1ccc(F)c2oc([C@@H]3c4nc[nH]c4CCN3C(=O)c3ocnc3C(F)F)nc12` [Example 898, (S)-(4-(difluoromethyl)oxazol-5-yl)(4-(7-fluoro-4-methylbenzo[d]oxazol-2-yl)-6,7-dihydro-1H-imidazo[4,5-c]pyridin-5(4H)-yl)methanone]: the half-maximal activity concentration (AC50) is ≤ 0.5 µM. Regarding `[2H][C@@]1(c2nc3cccc(F)c3o2)c2nc[nH]c2CCN1C(=O)c1ocnc1C(F)F` [Example 899, (S)-(4-(difluoromethyl)oxazol-5-yl)(4-deuterium-4-(7-fluorobenzo[d]oxazol-2-yl)-6,7-dihydro-1H-imidazo[4,5-c]pyridin-5(4H)-yl)methanone], the AC50 is ≤ 0.5 µM. In the case of `O=C(c1ocnc1C(F)F)N1CCc2[nH]cnc2[C@@H]1c1nc2cccc(F)c2o1` [Example 900, (R)-(4-(difluoromethyl)oxazol-5-yl)(4-deuterium-4-(7-fluorobenzo[d]oxazol-2-yl)-6,7-dihydro-1H-imidazo[4,5-c]pyridin-5(4H)-yl)methanone], the AC50 is 0.5 to 1 µM. As to `Cc1cccc2oc([C@@H]3c4nc[nH]c4CCN3C(=O)c3ncnn3C)nc12` [Example 901, (S)-(1-methyl-1H-1,2,4-triazol-5-yl)(4-(4-methylbenzo[d]oxazol-2-yl)-6,7-dihydro-1H-imidazo[4,5-c]pyridin-5(4H)-yl)methanone], the AC50 was in the range of 0.5 to 1 µM. Consider `Cc1cccc2oc([C@H]3c4nc[nH]c4CCN3C(=O)c3ncnn3C)nc12` [Example 902, (R)-(1-methyl-1H-1,2,4-triazol-5-yl)(4-(4-methylbenzo[d]oxazol-2-yl)-6,7-dihydro-1H-imidazo[4,5-c]pyridin-5(4H)-yl)methanone], for which the AC50 lay in the range of 1 to 5 µM. For `COc1cccc2oc([C@@H]3c4nc[nH]c4CCN3C(=O)c3ncnn3C)nc12` [Example 903, (S)-(4-(4-methoxybenzo[d]oxazol-2-yl)-6,7-dihydro-1H-imidazo[4,5-c]pyridin-5(4H)-yl)(1-methyl-1H-1,2,4-triazol-5-yl)methanone], the concentration at half-maximal activity (AC50) was 1 to 5 µM. The figure for `COc1cccc2oc([C@H]3c4nc[nH]c4CCN3C(=O)c3ncnn3C)nc12` [Example 904, (R)-(4-(4-methoxybenzo[d]oxazol-2-yl)-6,7-dihydro-1H-imidazo[4,5-c]pyridin-5(4H)-yl)(1-methyl-1H-1,2,4-triazol-5-yl)methanone] is ≥ 5 µM; for `[2H][C@@]1(c2nc3cc(F)ccc3o2)c2nc[nH]c2CCN1C(=O)c1oc(C(C)(C)O)nc1C(F)F` [Example 905] it is ≤ 0.5 µM. For the compound `Cc1nc(C(=O)N2CCc3[nH]cnc3[C@H]2c2nc3cccc(C)c3o2)n(C)n1` [Example 907, (S)-(1,3-dimethyl-1H-1,2,4-triazol-5-yl)(4-(7-methylbenzo[d]oxazol-2-yl)-6,7-dihydro-1H-imidazo[4,5-c]pyridin-5(4H)-yl)methanone], the AC50 fell in the range of 1 to 5 µM. The figure for `Cc1nc(C(=O)N2CCc3[nH]cnc3[C@@H]2c2nc3cccc(C)c3o2)n(C)n1` [Example 908, (R)-(1,3-dimethyl-1H-1,2,4-triazol-5-yl)(4-(7-methylbenzo[d]oxazol-2-yl)-6,7-dihydro-1H-imidazo[4,5-c]pyridin-5(4H)-yl)methanone] is 1 to 5 µM; for `COc1cccc2nc([C@@H]3c4nc[nH]c4CCN3C(=O)c3nc(C)nn3C)oc12` [Example 909, (S)-(1,3-dimethyl-1H-1,2,4-triazol-5-yl)(4-(7-methoxybenzo[d]oxazol-2-yl)-6,7-dihydro-1H-imidazo[4,5-c]pyridin-5(4H)-yl)methanone] it is 1 to 5 µM.

For `COc1cccc2nc([C@H]3c4nc[nH]c4CCN3C(=O)c3nc(C)nn3C)oc12` [Example 910, (R)-(1,3-dimethyl-1H-1,2,4-triazol-5-yl)(4-(7-methoxybenzo[d]oxazol-2-yl)-6,7-dihydro-1H-imidazo[4,5-c]pyridin-5(4H)-yl)methanone], the AC50 was ≥ 5 µM. `O=C(c1ocnc1C(F)F)N1CC2(CC2)c2[nH]cnc2[C@H]1c1nc2cccc(F)c2o1` [Example 911, (S)-(4-(difluoromethyl)oxazol-5-yl)(4′-(7-fluorobenzo[d]oxazol-2-yl)spiro[cyclopropane-1,7′-imidazo[4,5-c]pyridin]-5′(1′H,4′H,6′H)-yl)methanone]: the AC50 is ≤ 0.5 µM.

Regarding `O=C(c1ocnc1C(F)F)N1CC2(CC2)c2[nH]cnc2[C@@H]1c1nc2cccc(F)c2o1` [Example 912, (R)-(4-(difluoromethyl)oxazol-5-yl)(4′-(7-fluorobenzo[d]oxazol-2-yl)spiro[cyclopropane-1,7′-imidazo[4,5-c]pyridin]-5′(1′H,4′H,6′H)-yl)methanone], the AC50 was 0.5 to 1 µM. In the case of `O=C(CCc1nccs1)N1CCc2[nH]cnc2[C@H]1c1nc2ccccc2o1` [Example 913, (S)-1-(4-(benzo[d]oxazol-2-yl)-6,7-dihydro-1H-imidazo[4,5-c]pyridin-5(4H)-yl)-3-(thiazol-2-yl)propan-1-one] it was 0.5 to 1 µM. `O=C(c1c(C(F)(F)F)nn2ccccc12)N1CCc2[nH]cnc2[C@H]1c1nc2cc(F)ccc2o1` [Example 915, (S)-(4-(5-fluorobenzo[d]oxazol-2-yl)-6,7-dihydro-1H-imidazo[4,5-c]pyridin-5(4H)-yl)(2-(trifluoromethyl)pyrazolo[1,5-a]pyridin-3-yl)methanone]: the concentration at half-maximal activity (AC50) was ≤ 0.5 µM. As for `O=C(N1CCc2[nH]cnc2[C@H]1c1nc2cc(F)ccc2o1)C1(c2cnco2)CC1` [Example 917, (S)-(4-(5-fluorobenzo[d]oxazol-2-yl)-6,7-dihydro-1H-imidazo[4,5-c]pyridin-5(4H)-yl)(1-(oxazol-5-yl)cyclopropyl)methanone], the AC50 is 1 to 5 µM. In the case of `Cc1cccc2nc([C@@H]3c4nc[nH]c4CCN3C(=O)c3ccnn3C(F)F)oc12` [Example 919, (S)-(1-(difluoromethyl)-1H-pyrazol-5-yl)(4-(7-methylbenzo[d]oxazol-2-yl)-6,7-dihydro-1H-imidazo[4,5-c]pyridin-5(4H)-yl)methanone], the AC50 was ≤ 0.5 µM.
